Reference: patent US20210107874A1, “PHARMACEUTICAL FORMULATION OF CROTONYLAMINOPYRIDINE SALT” (priority 2017, published 2021)
In brackets after ≈: the same amount, converted by molar mass. Like-named read-outs stand apart in the source and are kept apart here.

Tests used:
[1] = Stability tests of solutions of compound 4 with equimolar acids in water; format: physicochemical; conditions: for solubility: water with equimolar acid, thermodynamic from solid
Description: Equimolar amounts of compound 4 and acids were diluted with water: Water was added until all residues were dissolved. 200, 100 and 50 mg of compound 4 was used, each amount was combined with each acid of the following list. The solutions were equilibrated at room temperature and then held for 7 days at room temperature and thereafter 7 days at 8° C.

[2] = Quantitative determination of solubility of compound 5 (UPLC); format: physicochemical; conditions: 25 °C, aqueous buffer, thermodynamic from solid
Description: Compound 5 (120 mg) was weighed into shell vials and combined with acid (600 μl of a 350 mM solution of the respective acid in water).

**Q.** With `CCOc1cc(NCCNC(=O)/C=C/C(F)(F)F)ccn1` [Compound 4, (E)-N-[2-[(2-ethoxy-4-pyridyl)amino]ethyl]-4,4,4-trifluoro-but-2-enamide] as the molecule, how does the pH ([1]; equimolar Citric acid in water) read?
**A.** Its pH is 3.41.

**Q.** And the pH ([1]; equimolar D-glucoronic acid in water)?
**A.** Its pH is 4.15.

**Q.** What about the pH ([1]; equimolar Ethanesulfonic acid in water) of the same molecule?
**A.** The pH was 1.23.

**Q.** What about the pH ([1]; equimolar Fumaric acid in water) of the same molecule?
**A.** The pH was 3.74.

**Q.** And the pH ([1]; equimolar Hydrochloric acid in water)?
**A.** Its pH is 1.15.

**Q.** What about the pH ([1]; equimolar L-lactic acid in water) of the same molecule?
**A.** The pH was 4.28.

**Q.** What about the pH ([1]; equimolar Methanesulfonic acid in water) of the same molecule?
**A.** Its pH is 1.28.

**Q.** And the pH ([1]; equimolar Oxalic acid in water)?
**A.** Its pH is 2.14.

**Q.** What about the pH ([1]; equimolar Sulfuric acid in water) of the same molecule?
**A.** The pH was 0.06.

**Q.** What about the pH ([1]; equimolar Tartaric acid in water) of the same molecule?
**A.** Its pH is 3.35.

**Q.** And the solubility ([1]; pH 0.06, water, equimolar Sulfuric acid in water)?
**A.** The solubility was over 200 mg/mL.

**Q.** And the solubility ([1]; pH 1.15, water, equimolar Hydrochloric acid in water)?
**A.** Its solubility is over 200 mg/mL.

**Q.** What about the solubility ([1]; pH 1.23, water, equimolar Ethanesulfonic acid in water) of the same molecule?
**A.** Its solubility is over 200 mg/mL.

**Q.** What about the solubility ([1]; pH 1.28, water, equimolar Methanesulfonic acid in water) of the same molecule?
**A.** The solubility was over 200 mg/mL.

**Q.** And the solubility ([1]; pH 2.14, water, equimolar Oxalic acid in water)?
**A.** Its solubility is over 200 mg/mL.

**Q.** What about the solubility ([1]; water, equimolar Citric acid in water) of the same molecule?
**A.** The solubility was over 200 mg/mL.

**Q.** And the solubility ([1]; water, equimolar D-glucoronic acid in water)?
**A.** The solubility was over 100 mg/mL.

**Q.** And the solubility ([1]; water, equimolar Fumaric acid in water)?
**A.** The solubility was over 200 mg/mL.

**Q.** And the solubility ([1]; water, equimolar L-lactic acid in water)?
**A.** Its solubility is over 100 mg/mL.

**Q.** And the solubility ([1]; water, equimolar Phosphoric acid in water)?
**A.** The solubility was over 100 mg/mL.

**Q.** And the solubility ([1]; water, equimolar Tartaric acid in water)?
**A.** Its solubility is over 200 mg/mL.

**Q.** What about the solubility ([1]; water, equimolar acetic acid in water) of the same molecule?
**A.** Its solubility is under 50 mg/mL.

**Q.** What about the solubility ([1]; water, equimolar benzenesulfonic acid in water) of the same molecule?
**A.** The solubility was under 50 mg/mL.

**Q.** What about the solubility ([1]; water, equimolar benzoic acid in water) of the same molecule?
**A.** Its solubility is under 50 mg/mL.

**Q.** What about the solubility ([1]; water, equimolar ethanedisulfonic acid in water) of the same molecule?
**A.** The solubility was under 50 mg/mL.

**Q.** What about the solubility ([1]; water, equimolar isethionic acid in water) of the same molecule?
**A.** The solubility was over 200 mg/mL.

**Q.** What about the solubility ([1]; water, equimolar maleic acid in water) of the same molecule?
**A.** The solubility was under 50 mg/mL.

**Q.** What about the solubility ([1]; water, equimolar malonic acid in water) of the same molecule?
**A.** The solubility was under 50 mg/mL.

**Q.** What about the solubility ([1]; water, equimolar p-toluenesulfonic acid in water) of the same molecule?
**A.** The solubility was under 50 mg/mL.

**Q.** What about the solubility ([1]; water, equimolar saccharin in water) of the same molecule?
**A.** The solubility was under 50 mg/mL.

**Q.** And the solubility ([1]; water, equimolar succinic acid in water)?
**A.** The solubility was under 50 mg/mL.

**Q.** With `COc1cc(NCCNC(=O)/C=C/C(C)(F)F)ccn1` [Compound 5] as the molecule, how does the solubility at 1 day ([2]; aqueous acid solution (350 mM citric acid in water), Citric acid 350 mM in water, read-out: Solubility T = 1 Day) read?
**A.** Its solubility at 1 day is 160 mg/mL (≈ 559 mM).

**Q.** And the solubility at 1 day ([2]; aqueous acid solution (350 mM citric acid in water), Citric acid 350 mM in water, read-out: Solubility T = 1 Day Average)?
**A.** Its solubility at 1 day is 149 mg/mL (≈ 523 mM).

**Q.** What about the solubility at 3 days ([2]; aqueous acid solution (350 mM citric acid in water), Citric acid 350 mM in water, read-out: Solubility T = 3 Days) of the same molecule?
**A.** The solubility at 3 days was 153 mg/mL (≈ 536 mM).

**Q.** And the solubility at 3 days ([2]; aqueous acid solution (350 mM citric acid in water), Citric acid 350 mM in water, read-out: Solubility T = 3 Days Average)?
**A.** Its solubility at 3 days is 151 mg/mL (≈ 529 mM).

**Q.** And the solubility at 1 day ([2]; aqueous acid solution (350 mM ethanesulfonic acid in water), Ethanesulfonic acid 350 mM in water, read-out: Solubility T = 1 Day)?
**A.** Its solubility at 1 day is 155 mg/mL (≈ 543 mM).

**Q.** And the solubility at 1 day ([2]; aqueous acid solution (350 mM ethanesulfonic acid in water), Ethanesulfonic acid 350 mM in water, read-out: Solubility T = 1 Day Average)?
**A.** Its solubility at 1 day is 145 mg/mL (≈ 507 mM).

**Q.** What about the solubility at 3 days ([2]; aqueous acid solution (350 mM ethanesulfonic acid in water), Ethanesulfonic acid 350 mM in water, read-out: Solubility T = 3 Days) of the same molecule?
**A.** Its solubility at 3 days is 167 mg/mL (≈ 587 mM).

**Q.** And the solubility at 3 days ([2]; aqueous acid solution (350 mM ethanesulfonic acid in water), Ethanesulfonic acid 350 mM in water, read-out: Solubility T = 3 Days Average)?
**A.** Its solubility at 3 days is 165 mg/mL (≈ 578 mM).

**Q.** What about the solubility at 1 day ([2]; aqueous acid solution (350 mM fumaric acid in water), Fumaric acid 350 mM in water, read-out: Solubility T = 1 Day) of the same molecule?
**A.** Its solubility at 1 day is 152 mg/mL (≈ 531 mM).

**Q.** And the solubility at 1 day ([2]; aqueous acid solution (350 mM fumaric acid in water), Fumaric acid 350 mM in water, read-out: Solubility T = 1 Day Average)?
**A.** The solubility at 1 day was 149 mg/mL (≈ 522 mM).

**Q.** And the solubility at 3 days ([2]; aqueous acid solution (350 mM fumaric acid in water), Fumaric acid 350 mM in water, read-out: Solubility T = 3 Days)?
**A.** Its solubility at 3 days is 140 mg/mL (≈ 490 mM).

**Q.** And the solubility at 3 days ([2]; aqueous acid solution (350 mM fumaric acid in water), Fumaric acid 350 mM in water, read-out: Solubility T = 3 Days Average)?
**A.** Its solubility at 3 days is 153 mg/mL (≈ 535 mM).

**Q.** And the solubility at 1 day ([2]; aqueous acid solution (350 mM malic acid in water), Malic acid 350 mM in water, read-out: Solubility T = 1 Day)?
**A.** Its solubility at 1 day is 129 mg/mL (≈ 451 mM).

**Q.** And the solubility at 1 day ([2]; aqueous acid solution (350 mM malic acid in water), Malic acid 350 mM in water, read-out: Solubility T = 1 Day Average)?
**A.** Its solubility at 1 day is 122 mg/mL (≈ 427 mM).

**Q.** And the solubility at 3 days ([2]; aqueous acid solution (350 mM malic acid in water), Malic acid 350 mM in water, read-out: Solubility T = 3 Days)?
**A.** The solubility at 3 days was 117 mg/mL (≈ 409 mM).

**Q.** And the solubility at 3 days ([2]; aqueous acid solution (350 mM malic acid in water), Malic acid 350 mM in water, read-out: Solubility T = 3 Days Average)?
**A.** Its solubility at 3 days is 116 mg/mL (≈ 408 mM).

**Q.** What about the solubility at 1 day ([2]; aqueous acid solution (350 mM oxalic acid in water), Oxalic acid 350 mM in water, read-out: Solubility T = 1 Day) of the same molecule?
**A.** The solubility at 1 day was 149 mg/mL (≈ 523 mM).

**Q.** And the solubility at 1 day ([2]; aqueous acid solution (350 mM oxalic acid in water), Oxalic acid 350 mM in water, read-out: Solubility T = 1 Day Average)?
**A.** The solubility at 1 day was 142 mg/mL (≈ 498 mM).

**Q.** What about the solubility at 3 days ([2]; aqueous acid solution (350 mM oxalic acid in water), Oxalic acid 350 mM in water, read-out: Solubility T = 3 Days) of the same molecule?
**A.** Its solubility at 3 days is 155 mg/mL (≈ 544 mM).

**Q.** And the solubility at 3 days ([2]; aqueous acid solution (350 mM oxalic acid in water), Oxalic acid 350 mM in water, read-out: Solubility T = 3 Days Average)?
**A.** The solubility at 3 days was 155 mg/mL (≈ 544 mM).

**Q.** And the solubility at 1 day ([2]; aqueous acid solution (350 mM oxoglutaric acid in water), Oxoglutaric acid 350 mM in water, read-out: Solubility T = 1 Day)?
**A.** Its solubility at 1 day is 128 mg/mL (≈ 447 mM).

**Q.** And the solubility at 1 day ([2]; aqueous acid solution (350 mM oxoglutaric acid in water), Oxoglutaric acid 350 mM in water, read-out: Solubility T = 1 Day Average)?
**A.** Its solubility at 1 day is 129 mg/mL (≈ 453 mM).

**Q.** What about the solubility at 3 days ([2]; aqueous acid solution (350 mM oxoglutaric acid in water), Oxoglutaric acid 350 mM in water, read-out: Solubility T = 3 Days) of the same molecule?
**A.** Its solubility at 3 days is 135 mg/mL (≈ 472 mM).

**Q.** What about the solubility at 3 days ([2]; aqueous acid solution (350 mM oxoglutaric acid in water), Oxoglutaric acid 350 mM in water, read-out: Solubility T = 3 Days Average) of the same molecule?
**A.** Its solubility at 3 days is 134 mg/mL (≈ 468 mM).

**Q.** What about the solubility at 1 day ([2]; aqueous acid solution (350 mM tartaric acid in water), Tartaric acid 350 mM in water, read-out: Solubility T = 1 Day) of the same molecule?
**A.** The solubility at 1 day was 117 mg/mL (≈ 410 mM).

**Q.** And the solubility at 1 day ([2]; aqueous acid solution (350 mM tartaric acid in water), Tartaric acid 350 mM in water, read-out: Solubility T = 1 Day Average)?
**A.** Its solubility at 1 day is 137 mg/mL (≈ 481 mM).

**Q.** And the solubility at 3 days ([2]; aqueous acid solution (350 mM tartaric acid in water), Tartaric acid 350 mM in water, read-out: Solubility T = 3 Days)?
**A.** The solubility at 3 days was 162 mg/mL (≈ 567 mM).

**Q.** What about the solubility at 3 days ([2]; aqueous acid solution (350 mM tartaric acid in water), Tartaric acid 350 mM in water, read-out: Solubility T = 3 Days Average) of the same molecule?
**A.** The solubility at 3 days was 163 mg/mL (≈ 571 mM).
